Test results reported in PubChem BioAssay AID1117319 (Southern Research Institute, 2015).
Records with an inconclusive call do not appear.

target: Virion infectivity factor (Human immunodeficiency virus type 1 group M subtype B (isolate BH10)) + Virion infectivity factor (Human immunodeficiency virus type 1 group M subtype B (isolate BRU/LAI)) + Virion infectivity factor (Human immunodeficiency virus type 1 group M subtype B (isolate PCV12)) + Virion infectivity factor (Human immunodeficiency virus type 1 group M subtype B (isolate HXB2)) + DNA dC->dU-editing enzyme APOBEC-3G (Homo sapiens) (UniProt P69720+P69721+P69722+P69723+Q9HC16); test: inhibitors of Vif binding to APOBEC3G peptide, primary screen, biochemical, TR-FRET, GST-Vif 1-94, biotin-A3G peptide, dose response retest (AID 1117319);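 further: Vif residues 1-94 fused to GST binding biotinylated APOBEC3G peptide 110-148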

Question: Which IC50 does the source give for Cc1cccc(C)c1NS(=O)(=O)c1c(C)[nH]c(=O)[nH]c1=O here?
Answer: The IC50 was 85.4 µM.

Question: With C=CCN1C(=O)/C(=C\c2ccco2)C(C(=O)OC)=C1C as the compound, how does the IC50 read?
Answer: Its IC50 is 14.1 µM.

Question: Which IC50 does the source give for O=C(OC1CCCCC1)c1ccc2c(c1)C1C=CCC1C(C(=O)O)N2 (stereo unspecified) here?
Answer: Its IC50 is 0.51 µM.

Question: For CCOC(=O)C1CCN(C(=O)Nc2ccc3nc(-c4ccco4)c(-c4ccco4)nc3c2)CC1, which IC50 is on record?
Answer: Its IC50 is under 0.432 µM.

Question: How did the IC50 turn out when O=C(Nc1cc(Cl)cc(Cl)c1)c1coc(=O)c(Br)c1 was run?
Answer: Its IC50 is 19.1 µM.

Question: For CCN(CC)c1ccc2oc(=O)c(C)nc2c1, which IC50 is on record?
Answer: Its IC50 is 2.87 µM.

Question: Which IC50 does the source give for COc1nc(N(c2ccccc2)c2ccccc2)nc(-n2ccnc2)n1 here?
Answer: The IC50 was 26.3 µM.

Question: Oc1cccc(/C=N/NC(=S)NCCN2CCOCC2)c1O was tested. Which IC50 did it give?
Answer: The IC50 was 12.4 µM.

Question: With O=C(NCc1ccccc1Cl)c1csc2c1CCCCC2 as the compound, how does the IC50 read?
Answer: Its IC50 is 8.35 µM.

Question: How did the IC50 turn out when COc1cc(-c2cccs2)cc(=O)c2c(C)oc(C)c12 was run?
Answer: Its IC50 is 3.55 µM.

Question: For CC1=CC2(O)OCCN(CCO)C2=CC1=O (stereo unspecified), which IC50 is on record?
Answer: The IC50 was 7.05 µM.

Question: Clc1ccc(/C=N/c2c(-c3ccco3)nc3ccccn23)cc1 was tested. Which IC50 did it give?
Answer: Its IC50 is 14.1 µM.

Question: CC(C)OP(=O)(OC(C)C)C(O)c1ccc(N(C)C)cc1 (stereo unspecified) was tested. Which IC50 did it give?
Answer: The IC50 was 75.9 µM.

Question: N#Cc1ccc(N2CCN(C(=O)c3cccc(F)c3)CC2)c(F)c1 was tested. Which IC50 did it give?
Answer: Its IC50 is 91 µM.

Question: With Cc1cc(C)c([N+](=O)[O-])cc1-c1ccc(/C=N/NC(=O)c2nonc2N)o1 as the compound, how does the IC50 read?
Answer: The IC50 was 52.7 µM.

Question: Which IC50 does the source give for CN(CCO)c1cc(Sc2nc3ccccc3s2)c2nonc2c1[N+](=O)[O-] here?
Answer: The IC50 was 42.6 µM.

Question: With O=C(NNC(=O)c1ccccc1O)c1ccc(-c2ccc([N+](=O)[O-])cc2)o1 as the compound, how does the IC50 read?
Answer: Its IC50 is 32.3 µM.

Question: Which IC50 does the source give for Cc1oc(/N=C/c2cccc3ccccc23)c(C#N)c1C here?
Answer: Its IC50 is 52.7 µM.

Question: Cc1cc(C(=O)CN2C(=O)c3ccccc3S2(=O)=O)c(C)n1CC1CCCO1 (stereo unspecified) was tested. Which IC50 did it give?
Answer: The IC50 was 51.2 µM.

Question: For Cc1cc2c(N)cccc2nn1, which IC50 is on record?
Answer: Its IC50 is under 0.195 µM.

Question: With CSc1ccc(/C=N/Nc2cccc(C(=O)O)c2)cc1 as the compound, how does the IC50 read?
Answer: The IC50 was 11.2 µM.

Question: Which IC50 does the source give for CCC(C)[C@@H](C(=O)Nc1ccc2c(c1)OCO2)N1Cc2ccccc2C1=O (stereo partly specified) here?
Answer: The IC50 was 98.4 µM.

Question: With COc1ccc(NC(=O)CC2Nc3cccc4cccc(c34)NC2=O)cc1 (stereo unspecified) as the compound, how does the IC50 read?
Answer: The IC50 was 1.21 µM.

Question: CN(CC(=O)Nc1cccc(F)c1)C(=O)c1cc(-c2ccco2)nc2ccccc12 was tested. Which IC50 did it give?
Answer: Its IC50 is 4.8 µM.

Question: Which IC50 does the source give for CCN(C(=O)CN1CCN(c2ccc(O)cc2)CC1)c1c(N)n(Cc2ccccc2)c(=O)[nH]c1=O here?
Answer: The IC50 was 16.4 µM.

Question: CC(C)(C)C(=O)OCc1nc(-c2ccc(O)c(O)c2)cs1 was tested. Which IC50 did it give?
Answer: The IC50 was 17.1 µM.

Question: With COc1cccc(NS(=O)(=O)c2ccc3c(c2)C2C=CCC2C(c2ccc(C(=O)O)cc2)N3)c1 (stereo unspecified) as the compound, how does the IC50 read?
Answer: The IC50 was 3.32 µM.

Question: O=C1NC(=O)C(=CN2CCc3ccccc32)C(=O)N1 was tested. Which IC50 did it give?
Answer: Its IC50 is 91.3 µM.

Question: For COc1ccc(N2CCN(c3nc4ccccc4nc3NS(=O)(=O)c3ccccc3)CC2)cc1, which IC50 is on record?
Answer: The IC50 was 66.6 µM.

Question: How did the IC50 turn out when Cc1ccc(/C=c2\sc3nc(-c4cccs4)nn3c2=O)o1 was run?
Answer: Its IC50 is 13.2 µM.

Question: How did the IC50 turn out when O=C(/C=C/c1ccco1)NC(=S)Nc1ccc(C(=O)O)cc1 was run?
Answer: The IC50 was 16.1 µM.

Question: Which IC50 does the source give for O=C(COC(=O)c1c2c(nc3ccccc13)/C(=C\c1ccco1)CC2)NC1CCCC1 here?
Answer: Its IC50 is 3.67 µM.

Question: Cc1ccccc1-c1nc(CN2CCC(C(=O)N3CCN(c4ccccn4)CC3)CC2)c(C)o1 was tested. Which IC50 did it give?
Answer: The IC50 was 43.3 µM.

Question: CC1(C)Cc2nc3sc(C(=O)O)c(N)c3cc2CS1 was tested. Which IC50 did it give?
Answer: The IC50 was 18.4 µM.

Question: How did the IC50 turn out when O=C(O)c1cccc2c1NC(C(=O)O)C1CC(Sc3ccccc3[N+](=O)[O-])C(Cl)C21 (stereo unspecified) was run?
Answer: Its IC50 is 0.5 µM.

Question: Which IC50 does the source give for O=C1C2C3C=CC(C3)C2C(=O)N1CNc1ccc(O)cc1 (stereo unspecified) here?
Answer: The IC50 was 2.78 µM.

Question: With Cc1cccc(C)c1NC(=O)COC(=O)c1cc(-c2cccnc2)nc2ccccc12 as the compound, how does the IC50 read?
Answer: Its IC50 is 41.4 µM.

Question: How did the IC50 turn out when C=CCN1CCc2cccc3c2[C@H]1Cc1ccc(O)c(O)c1-3 was run?
Answer: Its IC50 is 14.8 µM.

Question: How did the IC50 turn out when CCN1C(=O)/C(=C\c2ccc([N+](=O)[O-])s2)C(=O)NC1=S was run?
Answer: Its IC50 is 1.53 µM.

Question: NNc1ccc([N+](=O)[O-])c2[nH][nH]c(=O)c12 was tested. Which IC50 did it give?
Answer: Its IC50 is 1.93 µM.

Question: Which IC50 does the source give for CCN(CC)c1ccc(N=Cc2ccc(N(CC)CC)cc2O)cc1 here?
Answer: The IC50 was 50.7 µM.

Question: Cc1cc(C)c2c(c1)[C@@H]1C=CC[C@@H]1[C@H](c1ccc(S(=O)(=O)N3CCOCC3)cc1)N2 was tested. Which IC50 did it give?
Answer: The IC50 was 19.5 µM.

Question: Which IC50 does the source give for O=C(/C=C/c1ccc(O)c(O)c1)OC1C(O)CC(OC(=O)/C=C/c2ccc(O)c(O)c2)(C(=O)O)CC1O (stereo unspecified) here?
Answer: The IC50 was 16.2 µM.

Question: With COc1cc(NCCCCCCN)c2ncccc2c1OC as the compound, how does the IC50 read?
Answer: Its IC50 is 3.55 µM.

Question: CO[C@H]1C=CO[C@@]2(C)Oc3c(C)c(O)c4c(O)c(c(C=NN5CCN(C)CC5)c(O)c4c3C2=O)NC(=O)C(C)=CC=C[C@H](C)[C@H](O)[C@@H](C)[C@@H](O)[C@@H](C)[C@H](OC(C)=O)[C@@H]1C was tested. Which IC50 did it give?
Answer: Its IC50 is 7.75 µM.

Question: For N#CC(C#N)=Cc1cccn1-c1ccc(C(=O)O)cc1, which IC50 is on record?
Answer: Its IC50 is 10.3 µM.

Question: CN(C)c1ccc(N2C(=O)CSC2=S)cc1 was tested. Which IC50 did it give?
Answer: The IC50 was 8.37 µM.

Question: O=[N+]([O-])c1ccc(N/N=C/c2ccc(O)c(O)c2O)c(S(=O)(=O)N2CCOCC2)c1 was tested. Which IC50 did it give?
Answer: Its IC50 is 1.14 µM.

Question: Which IC50 does the source give for Oc1ccc(C[C@H]2NCCc3cc(O)c(O)cc32)cc1O here?
Answer: Its IC50 is 9.77 µM.

Question: Which IC50 does the source give for Cc1cccc(N/N=C/c2ccc(O)c(O)c2O)c1 here?
Answer: Its IC50 is 9.51 µM.

Question: With COc1cccc(NC(=O)CSc2nnc(-c3ccco3)c(-c3ccco3)n2)c1 as the compound, how does the IC50 read?
Answer: Its IC50 is 10.2 µM.

Question: For Cc1cc(C)cc(Nc2ncc3c(n2)CC(c2ccco2)CC3=O)c1 (stereo unspecified), which IC50 is on record?
Answer: Its IC50 is 6.84 µM.

Question: How did the IC50 turn out when Cc1ccc(C)c(NC(=O)CN(C)C(=O)c2cccc(-n3cccc3)c2)c1 was run?
Answer: Its IC50 is 15.4 µM.

Question: With CN1CCN(c2ccc(N)cc2)CC1 as the compound, how does the IC50 read?
Answer: The IC50 was 15.6 µM.

Question: How did the IC50 turn out when Cc1cc(C(=O)CCl)c(C)n1-c1c(C)n(C)n(-c2ccccc2)c1=O was run?
Answer: Its IC50 is 42.8 µM.

Question: COc1ccc(N2CCN(C(=O)c3ccc(C)c(Cl)c3)CC2)cc1 was tested. Which IC50 did it give?
Answer: Its IC50 is 42.2 µM.
